The NIST ThermoML archive (doi:10.1016/j.fluid.2016.08.002)

Assay: xn = mol fraction of the nth substance listed
Details: Gas, Vibrating tube method

S [hydrogen sulfide] + C
Details	mass density [kg/m3]
293.33 K, 19012 kPa, x2 = 0.714	281.75
293.33 K, 19476 kPa, x2 = 0.714	286.23
293.33 K, 21863 kPa, x2 = 0.714	306.8
293.33 K, 26879 kPa, x2 = 0.714	337.31
293.33 K, 29517 kPa, x2 = 0.714	349.82
293.33 K, 29998 kPa, x2 = 0.714	352.02
293.34 K, 6006 kPa, x2 = 0.8197	58.11
293.34 K, 14027 kPa, x2 = 0.8197	162.75
293.34 K, 14501 kPa, x2 = 0.8197	169.12
293.34 K, 16524 kPa, x2 = 0.714	253.44
293.34 K, 17035 kPa, x2 = 0.714	260.09
293.34 K, 20081 kPa, x2 = 0.714	291.58
293.34 K, 20504 kPa, x2 = 0.714	295.67
293.34 K, 22090 kPa, x2 = 0.8197	248.06
293.35 K, 936 kPa, x2 = 0.8197	7.74
293.35 K, 2422 kPa, x2 = 0.8197	20.5
293.35 K, 4502 kPa, x2 = 0.8197	41.72
293.35 K, 11685 kPa, x2 = 0.8197	130.63
293.35 K, 17740 kPa, x2 = 0.714	267.95
293.35 K, 21512 kPa, x2 = 0.8197	243.53
293.36 K, 1962 kPa, x2 = 0.8197	16.56
293.36 K, 12068 kPa, x2 = 0.8197	136.11
293.36 K, 12506 kPa, x2 = 0.8197	142.15
293.36 K, 13036 kPa, x2 = 0.8197	149.41
293.36 K, 13500 kPa, x2 = 0.8197	155.72
293.37 K, 10013 kPa, x2 = 0.8197	107.38
293.37 K, 15006 kPa, x2 = 0.8197	175.59
293.37 K, 22488 kPa, x2 = 0.8197	251.05
293.37 K, 26028 kPa, x2 = 0.8197	274.53
293.37 K, 27520 kPa, x2 = 0.8197	283
293.37 K, 29405 kPa, x2 = 0.8197	292.65
293.37 K, 29932 kPa, x2 = 0.8197	295.13
293.38 K, 2915 kPa, x2 = 0.8197	26.63
293.38 K, 27986 kPa, x2 = 0.8197	285.56
293.38 K, 28437 kPa, x2 = 0.8197	287.96
293.38 K, 28979 kPa, x2 = 0.8197	290.66
293.39 K, 5407 kPa, x2 = 0.714	58.83
293.39 K, 22971 kPa, x2 = 0.8197	254.58
293.39 K, 24024 kPa, x2 = 0.8197	261.83
293.39 K, 24659 kPa, x2 = 0.8197	266.01
293.4 K, 17009 kPa, x2 = 0.8197	200
293.4 K, 29019 kPa, x2 = 0.714	347.54
293.41 K, 16017 kPa, x2 = 0.8197	188.26
293.41 K, 17526 kPa, x2 = 0.8197	205.67
293.41 K, 19019 kPa, x2 = 0.8197	221.14
293.41 K, 19519 kPa, x2 = 0.8197	225.91
293.41 K, 20054 kPa, x2 = 0.8197	230.93
293.41 K, 21059 kPa, x2 = 0.8197	239.83
293.41 K, 23490 kPa, x2 = 0.8197	258.21
293.41 K, 25538 kPa, x2 = 0.8197	271.56
293.41 K, 27022 kPa, x2 = 0.8197	280.18
293.42 K, 3851 kPa, x2 = 0.714	38.01
293.42 K, 3941 kPa, x2 = 0.8197	35.88
293.42 K, 18033 kPa, x2 = 0.8197	211.2
293.42 K, 18536 kPa, x2 = 0.8197	216.41
293.42 K, 20511 kPa, x2 = 0.8197	234.95
293.42 K, 25034 kPa, x2 = 0.8197	268.44
293.42 K, 26523 kPa, x2 = 0.8197	277.36
293.42 K, 28586 kPa, x2 = 0.714	345.52
293.43 K, 4386 kPa, x2 = 0.714	46.59
293.43 K, 28085 kPa, x2 = 0.714	343.33
293.44 K, 4823 kPa, x2 = 0.714	51.27
293.45 K, 15532 kPa, x2 = 0.8197	182.32
293.45 K, 16485 kPa, x2 = 0.8197	193.92
293.53 K, 27520 kPa, x2 = 0.714	340.85
293.64 K, 27145 kPa, x2 = 0.714	339.08
